Measurements as given in patent US5401762A, “Aminoalkyl-substituted thiazolin-2-ones, the preparation and use thereof” (BASF Aktiengesellschaft, priority 1991, dated 1995).
pKi: −log10 of the molar value. Structures can show the parent of a compound that is named as a salt.

Target: T1, dopamine D2 receptor (Rattus norvegicus, UniProt P61169)
T1 construct: Striata from rats (Sprague Dawley, Charles River) were homogenized immediately after removal; from tissue; host or cells: rat striatum (Sprague Dawley, Charles River), membranes
T1 sequence (P61169 whole entry): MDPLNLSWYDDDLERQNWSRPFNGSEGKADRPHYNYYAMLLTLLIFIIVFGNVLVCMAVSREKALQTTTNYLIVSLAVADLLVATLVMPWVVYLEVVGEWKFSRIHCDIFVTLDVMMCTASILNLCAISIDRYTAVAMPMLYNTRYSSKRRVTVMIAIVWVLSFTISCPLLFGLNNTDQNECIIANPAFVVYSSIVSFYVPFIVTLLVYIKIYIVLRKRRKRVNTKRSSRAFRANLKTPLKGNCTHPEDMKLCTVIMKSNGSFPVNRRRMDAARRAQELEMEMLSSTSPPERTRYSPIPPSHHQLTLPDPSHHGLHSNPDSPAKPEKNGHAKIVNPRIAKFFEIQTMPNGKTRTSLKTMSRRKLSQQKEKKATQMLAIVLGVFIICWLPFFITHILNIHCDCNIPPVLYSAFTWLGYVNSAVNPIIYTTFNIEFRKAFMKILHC
Assay: Receptor binding assay: affinity for the dopamine D2 receptor (3H-ADTN displacement, rat striatal membranes)
Design: species or system rat (Sprague Dawley)
Conditions: not given
Protocol: The effects of the novel compounds can be shown in the receptor binding assay as follows:
Striata from rats (Sprague Dawley, Charles River) were homogenized immediately after removal in 0.32M sucrose solution (0° C.). The homogenate was filtered through gauze, the filtrate was centrifuged at 1000 xg (5 min at 4° C.) and the resulting supernatant was centrifuged at 40000 xg (4° C., 10 min). The residue (membranes) was taken up in incubation buffer (50 mM tris-HCl, 1 mM MgCl2 and 0.1% ascorbic acid, pH 7.4) and incubated at 37° C. for 20 min. The residue was subsequently washed 2×with incubation buffer by resuspension and recentrifugation. The membranes were frozen in portions in liquid nitrogen.
The assay mixtures (1 ml) were composed of membranes (380 μg of protein), 1 nM ^3 H-ADTN (NEN, Dreieich Germany, specific radioactivity 1.4 TBq/mmol) and 0.1 μM SCH 23390 (total binding) or a) with the addition of 50 nM spiperone (non-specific binding) or b) with-test substance. The mixtures were prepared in triplicate.
After the incubation (40 min at 25° C.) the mixtures were filtered through glass fiber filters (Whatman GF/B) and briefly washed with ice-cold washing buffer (Tris-HCl pH 7.4). The radioactivity retained on the filters was determined by liquid scintillation counting. The non-specific binding comprised about 40-50% of the total binding.
The evaluation of the competition plots and the determination of the dissociation constant took place by iterative non-linear regression analysis based on the "ligand" program (Muson and Rodbard: Anal. Biochem. 107 (1980) 220).

**Q.** `Cc1[nH]c(=O)sc1CCCN1CC=C(c2ccccc2)CC1` [Example 1, 4-Methyl-5-[3-(1,2,3,6-tetrahydro-4-phenylpyridyl)propyl]-thiazolin-2-one hydrochloride] was tested. Which pKi did it give?
**A.** Its pKi is 8.10.

Same assay, conditions: rat striatal membranes (380 μg protein), 1 nM 3H-ADTN, 0.1 μM SCH 23390, 40 min at 25° C., non-specific: 50 nM spiperone; read-out: Affinity of the test substances for the dopamine D2 receptor, Ki

**Q.** With `Cc1[nH]c(=O)sc1CCCN1CCN(c2ccccn2)CC1` [Example 2, 4-Methyl-5-[3-(4-pyrid-2-ylpiperazinyl)propyl]thiazolin-2-one dihydrochloride] as the compound, how does the pKi read?
**A.** Its pKi is 7.82.

**Q.** How did the pKi turn out when `CCc1ccccc1N1CCN(CCCc2sc(=O)[nH]c2C)CC1` [Example 10, 4-Methyl-5-[3-(4-(2-ethylphenyl)piperazinyl)propyl]thiazolin-2-one dihydrochloride] was run?
**A.** Its pKi is 7.60.

**Q.** How did the pKi turn out when `Cc1[nH]c(=O)sc1CCCN1CCN(c2cccc(C(F)(F)F)c2)CC1` [Example 13, 4-Methyl-5-[3-(4-(3-trifluoromethylphenyl)piperazinyl)propyl]thiazolin-2-one hydrochloride] was run?
**A.** Its pKi is 7.35.

**Q.** `CCOc1ccccc1N1CCN(CCCc2sc(=O)[nH]c2C)CC1` [Example 14, 4-Methyl-5-[3-(4-(2-ethoxyphenyl)piperazinyl)propyl]thiazolin-2-one dihydrochloride] was tested. Which pKi did it give?
**A.** The pKi was 8.22.

**Q.** With `Cc1c(CCCN2CCN(c3ccccc3)CC2)sc(=O)n1C` [Example 17, 3,4-Dimethyl-5-[3-(4-phenylpiperazinyl)propyl]thiazolin-2-one dihydrochloride] as the compound, how does the pKi read?
**A.** Its pKi is 7.40.

**Q.** How did the pKi turn out when `CSc1ccccc1N1CCN(CCCc2sc(=O)[nH]c2C)CC1` [Example 12, 4-Methyl-5-[3-(4-(2-methylthiophenyl)piperazinyl)propyl]thiazolin-2-onehydrochloride] was run?
**A.** The pKi was 8.22.

**Q.** `Cc1[nH]c(=O)sc1CCCN1CCN(c2ncccn2)CC1` [Example 7, 4-Methyl-5-[3-(4-pyrimidin-2-ylpiperazinyl)propyl]thiazolin-2-one dihydrochloride] was tested. Which pKi did it give?
**A.** The pKi was 7.92.
